Test results published in ChEMBL document CHEMBL6071181, “Discovery of ZLC491 as a Potent, Selective, and Orally Bioavailable CDK12/13 PROTAC Degrader” (J Med Chem, 2024).
The source made the active and inactive calls.

What was measured:
MDA-MB-231 [1] = assay: Induction of CCNK degradation in human MDA-MB-231 cells incubated for 15 hrs by immunoblotting analysis; type: cell-based; conditions: dose 0.01-3 µM
MDA-MB-231 [2] = assay: Synergistic antiproliferative activity against human MDA-MB-231 cells assessed as combination index at 0.3 uM incubated for 5 days in presence of olaparib by CCK8 assay; type: functional; conditions: time 5 day
MDA-MB-231 [3] = assay: Downregulation of BRCA1 mRNA expression in human MDA-MB-231 cells incubated for 12 hrs by RT-qPCR analysis; type: functional, cell-based; conditions: dose 60-300 nM
[4] = biological target: T1, Protein cereblon/Cyclin-dependent kinase 12 (Homo sapiens) (UniProt Q9NYV4+Q96SW2); assay: PROTAC activity at CRBN/CDK12 in human MDA-MB-231 cells assessed as induction of CDK12 degradation at 1 uM pretreated with 3-benzyl-1-((1r,4r)-4-((5-cyanopyridin-2-yl)amino)cyclohexyl)-1-(4-(piperazin-1-yl)phenyl)urea followed by compound addition and measured after 10 hrs by immunoblotting analysis; type: cell-based
[5] = biological target: T2, Protein cereblon/Cyclin-dependent kinase 13 (Homo sapiens) (UniProt Q14004+Q96SW2); assay: PROTAC activity at CRBN/CDK13 in human MDA-MB-231 cells assessed as induction of CDK13 degradation at 1 uM pretreated with 3-benzyl-1-((1r,4r)-4-((5-cyanopyridin-2-yl)amino)cyclohexyl)-1-(4-(piperazin-1-yl)phenyl)urea followed by compound addition and measured after 10 hrs by immunoblotting analysis; type: cell-based
MDA-MB-231 [6] = assay: Antiproliferative activity against human MDA-MB-231 cells xenografted in female CB17SCID mouse model assessed as induction of tumor apoptosis at 200 mg/kg, po administered for 5 days by H and E staining based immunohistochemical analysis; type: functional, organism-based; conditions: time 5.0 day
[7] = biological target: T2, Protein cereblon/Cyclin-dependent kinase 13 (Homo sapiens); assay: PROTAC activity at CRBN/CDK13 in human MDA-MB-231 cells assessed as induction of CDK13 degradation incubated for 15 hrs by immunoblotting analysis; type: cell-based
[8] = biological target: T1, Protein cereblon/Cyclin-dependent kinase 12 (Homo sapiens); assay: PROTAC activity at CRBN/CDK12 in human HCC38 cells assessed as induction of CDK12 degradation incubated for 15 hrs by immunoblotting analysis; type: cell-based; conditions: dose 0.01-3 µM
[9] = Antiproliferative activity against human MRC5 cells assessed as inhibition of cell growth incubated for 5 days by CCK8 assay; type: toxicity, cell-based
MDA-MB-231 [10] = assay: Downregulation of BRCA2 mRNA expression in human MDA-MB-231 cells incubated for 12 hrs by RT-qPCR analysis; type: functional, cell-based; conditions: dose 60-300 nM
[11] = biological target: T1, Protein cereblon/Cyclin-dependent kinase 12 (Homo sapiens); assay: PROTAC activity at CRBN/CDK12 in human MDA-MB-231 cells assessed as induction of CDK12 degradation at 1 uM pretreated with pomalidomide followed by compound addition and measured after 10 hrs by immunoblotting analysis; type: cell-based
MDA-MB-231 [12] = assay: Antiproliferative activity against human MDA-MB-231 cells xenografted in female CB17SCID mouse model assessed as increase in TUNEL signaling in tumor at 200 mg/kg, po administered for 5 days by TUNEL staining based immunohistochemical analysis; type: functional, organism-based; conditions: time 5.0 day
MDA-MB-231 [13] = assay: Downregulation of ATM protein level in human MDA-MB-231 cells at 0.1 to 0.5 uM incubated for 48 hrs by immunoblotting analysis; type: functional, cell-based; conditions: dose 0.1-0.5 µM
[14] = biological target: T1, Protein cereblon/Cyclin-dependent kinase 12 (Homo sapiens); assay: PROTAC activity at CRBN/CDK12 in human MDA-MB-231 cells assessed as induction of CDK12 degradation at 1 uM pretreated with bafilomycin followed by compound addition and measured after 10 hrs by immunoblotting analysis; type: cell-based
MDA-MB-231 [15] = assay: Synergistic antiproliferative activity against human MDA-MB-231 cells assessed as inhibition of cell growth at 0.3 to 7.5 uM incubated for 5 days in presence of cisplatin by CCK8 assay; type: functional, cell-based; conditions: dose 0.3-7.5 µM, time 5.0 day
[16] = Antiproliferative activity against HEK293 cells assessed as inhibition of cell growth incubated for 5 days by CCK8 assay; type: toxicity, cell-based; conditions: human
MDA-MB-231 [17] = assay: Synergistic antiproliferative activity against human MDA-MB-231 cells assessed as combination index at 7.5 uM incubated for 5 days in presence of cisplatin by CCK8 assay; type: functional; conditions: time 5 day
[18] = biological target: T1, Protein cereblon/Cyclin-dependent kinase 12 (Homo sapiens); assay: PROTAC activity at CRBN/CDK12 in human MDA-MB-231 cells assessed as induction of CDK12 degradation at 1 uM pretreated with MLN4924 followed by compound addition and measured after 10 hrs by immunoblotting analysis; type: cell-based
[19] = biological target: T1, Protein cereblon/Cyclin-dependent kinase 12 (Homo sapiens); assay: PROTAC activity at CRBN/CDK12 in human MDA-MB-231 cells assessed as induction of CDK12 degradation incubated for 15 hrs by immunoblotting analysis; type: cell-based
[20] = biological target: T2, Protein cereblon/Cyclin-dependent kinase 13 (Homo sapiens); assay: PROTAC activity at CRBN/CDK13 in human MDA-MB-231 cells assessed as induction of CDK13 degradation at 1 uM pretreated with bafilomycin followed by compound addition and measured after 10 hrs by immunoblotting analysis; type: cell-based
MDA-MB-231 [21] = assay: Synergistic antiproliferative activity against human MDA-MB-231 cells assessed as combination index at 0.3 uM incubated for 5 days in presence of cisplatin by CCK8 assay; type: functional; conditions: time 5 day
[22] = biological target: T2, Protein cereblon/Cyclin-dependent kinase 13 (Homo sapiens); assay: PROTAC activity at CRBN/CDK13 in human HCC38 cells assessed as induction of CDK13 degradation incubated for 15 hrs by immunoblotting analysis; type: cell-based; conditions: dose 0.01-3 µM
[23] = biological target: T1, Protein cereblon/Cyclin-dependent kinase 12 (Homo sapiens); assay: PROTAC activity at CRBN/CDK12 in human MDA-MB-231 cells assessed as induction of CDK12 degradation at 1 uM by immunoblotting analysis; type: cell-based; conditions: time <= 24.0 hrs, TDE = time-dependent effect
MDA-MB-231 [24] = assay: Synergistic antiproliferative activity against human MDA-MB-231 cells assessed as combination index at 1.5 uM incubated for 5 days in presence of olaparib by CCK8 assay; type: functional; conditions: time 5 day
[25] = biological target: T1, Protein cereblon/Cyclin-dependent kinase 12 (Homo sapiens); assay: PROTAC activity at CRBN/CDK12 in human MDA-MB-436 cells assessed as induction of CDK12 degradation incubated for 15 hrs by immunoblotting analysis; type: cell-based; conditions: dose 0.01-3 µM
[26] = biological target: T2, Protein cereblon/Cyclin-dependent kinase 13 (Homo sapiens); assay: PROTAC activity at CRBN/CDK13 in human MDA-MB-231 cells assessed as induction of CDK13 degradation at 1 uM pretreated with MLN4924 followed by compound addition and measured after 10 hrs by immunoblotting analysis; type: cell-based
[27] = biological target: T1, Protein cereblon/Cyclin-dependent kinase 12 (Homo sapiens); assay: In vivo PROTAC activity at CRBN/CDK12 in female CB17SCID mouse model xenografted with human MDA-MB-231 cells assessed as reduction in CDK12 protein expression in tumor at 100 to 200 mg/kg, po administered for 5 days by immunoblotting analysis; type: functional, organism-based; conditions: dose 100-200 mg/kg, time 5.0 day
[28] = biological target: T2, Protein cereblon/Cyclin-dependent kinase 13 (Homo sapiens); assay: In vivo PROTAC activity at CRBN/CDK13 in female CB17SCID mouse model xenografted with human MDA-MB-231 cells assessed as reduction in CDK13 protein expression in tumor at 100 to 200 mg/kg, po administered for 5 days by immunoblotting analysis; type: functional, organism-based; conditions: dose 100-200 mg/kg, time 5.0 day
[29] = biological target: T1, Protein cereblon/Cyclin-dependent kinase 12 (Homo sapiens); assay: PROTAC activity at CRBN/CDK12 in human MDA-MB-231 cells assessed as induction of CDK12 degradation at 2 uM incubated for 8 hrs by global proteomic analysis; type: cell-based
[30] = biological target: T1, Protein cereblon/Cyclin-dependent kinase 12 (Homo sapiens); assay: PROTAC activity at CRBN/CDK12 in human MDA-MB-231 cells assessed as induction of CDK12 degradation at 1 uM pretreated with MG132 followed by compound addition and measured after 10 hrs by immunoblotting analysis; type: cell-based

T2 sequence (Q14004 whole entry, looked up): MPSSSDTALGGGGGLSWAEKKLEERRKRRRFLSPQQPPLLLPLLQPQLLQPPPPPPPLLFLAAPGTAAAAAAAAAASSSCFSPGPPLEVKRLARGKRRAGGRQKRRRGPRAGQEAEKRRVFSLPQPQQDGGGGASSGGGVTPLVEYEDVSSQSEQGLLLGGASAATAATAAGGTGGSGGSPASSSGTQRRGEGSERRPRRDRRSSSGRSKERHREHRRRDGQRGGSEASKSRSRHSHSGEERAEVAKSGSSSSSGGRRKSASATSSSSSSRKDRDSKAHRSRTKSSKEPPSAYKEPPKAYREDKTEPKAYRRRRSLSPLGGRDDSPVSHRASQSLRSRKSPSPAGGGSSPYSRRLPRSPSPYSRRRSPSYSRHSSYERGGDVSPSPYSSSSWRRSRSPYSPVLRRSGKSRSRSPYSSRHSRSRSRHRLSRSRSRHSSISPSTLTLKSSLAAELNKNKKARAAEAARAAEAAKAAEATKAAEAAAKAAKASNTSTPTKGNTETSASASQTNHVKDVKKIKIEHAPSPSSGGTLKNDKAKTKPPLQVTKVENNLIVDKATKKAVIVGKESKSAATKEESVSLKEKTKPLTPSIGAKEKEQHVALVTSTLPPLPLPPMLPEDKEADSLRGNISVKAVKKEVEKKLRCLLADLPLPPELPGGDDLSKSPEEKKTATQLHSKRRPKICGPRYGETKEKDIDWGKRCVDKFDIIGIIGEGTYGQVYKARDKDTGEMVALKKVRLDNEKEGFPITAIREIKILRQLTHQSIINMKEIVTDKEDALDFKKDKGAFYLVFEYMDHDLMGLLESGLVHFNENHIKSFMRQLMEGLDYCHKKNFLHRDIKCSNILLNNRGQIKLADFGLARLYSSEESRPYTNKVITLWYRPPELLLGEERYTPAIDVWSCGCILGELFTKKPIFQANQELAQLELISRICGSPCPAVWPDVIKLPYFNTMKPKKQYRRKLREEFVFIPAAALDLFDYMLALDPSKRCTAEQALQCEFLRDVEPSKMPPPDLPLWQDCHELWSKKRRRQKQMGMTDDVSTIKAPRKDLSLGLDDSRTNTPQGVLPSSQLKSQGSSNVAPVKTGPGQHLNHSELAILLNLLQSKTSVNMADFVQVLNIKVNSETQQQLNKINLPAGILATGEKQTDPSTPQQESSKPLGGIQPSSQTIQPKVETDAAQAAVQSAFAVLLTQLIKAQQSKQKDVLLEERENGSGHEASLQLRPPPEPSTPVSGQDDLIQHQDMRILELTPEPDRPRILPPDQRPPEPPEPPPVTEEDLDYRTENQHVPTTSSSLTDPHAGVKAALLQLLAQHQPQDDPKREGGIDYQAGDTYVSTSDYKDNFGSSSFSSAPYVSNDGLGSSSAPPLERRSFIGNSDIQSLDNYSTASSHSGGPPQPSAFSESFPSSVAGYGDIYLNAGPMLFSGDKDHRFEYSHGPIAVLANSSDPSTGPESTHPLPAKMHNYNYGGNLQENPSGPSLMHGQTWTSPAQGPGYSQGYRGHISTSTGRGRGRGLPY
T2 sequence (Q96SW2 whole entry, looked up): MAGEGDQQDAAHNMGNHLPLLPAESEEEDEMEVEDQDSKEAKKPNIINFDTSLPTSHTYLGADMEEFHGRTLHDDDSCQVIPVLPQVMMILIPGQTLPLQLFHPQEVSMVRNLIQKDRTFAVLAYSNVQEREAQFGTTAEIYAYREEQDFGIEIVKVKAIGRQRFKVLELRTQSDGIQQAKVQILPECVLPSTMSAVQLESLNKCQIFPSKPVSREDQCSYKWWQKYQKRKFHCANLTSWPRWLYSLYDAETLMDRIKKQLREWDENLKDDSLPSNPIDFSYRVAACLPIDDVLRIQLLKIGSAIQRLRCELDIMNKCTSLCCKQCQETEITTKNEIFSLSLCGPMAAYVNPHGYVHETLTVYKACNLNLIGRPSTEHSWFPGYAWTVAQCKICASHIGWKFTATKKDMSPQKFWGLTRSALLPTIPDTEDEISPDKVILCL
T1 sequence (Q96SW2 whole entry, looked up): as above
T1 sequence (Q9NYV4 whole entry, looked up): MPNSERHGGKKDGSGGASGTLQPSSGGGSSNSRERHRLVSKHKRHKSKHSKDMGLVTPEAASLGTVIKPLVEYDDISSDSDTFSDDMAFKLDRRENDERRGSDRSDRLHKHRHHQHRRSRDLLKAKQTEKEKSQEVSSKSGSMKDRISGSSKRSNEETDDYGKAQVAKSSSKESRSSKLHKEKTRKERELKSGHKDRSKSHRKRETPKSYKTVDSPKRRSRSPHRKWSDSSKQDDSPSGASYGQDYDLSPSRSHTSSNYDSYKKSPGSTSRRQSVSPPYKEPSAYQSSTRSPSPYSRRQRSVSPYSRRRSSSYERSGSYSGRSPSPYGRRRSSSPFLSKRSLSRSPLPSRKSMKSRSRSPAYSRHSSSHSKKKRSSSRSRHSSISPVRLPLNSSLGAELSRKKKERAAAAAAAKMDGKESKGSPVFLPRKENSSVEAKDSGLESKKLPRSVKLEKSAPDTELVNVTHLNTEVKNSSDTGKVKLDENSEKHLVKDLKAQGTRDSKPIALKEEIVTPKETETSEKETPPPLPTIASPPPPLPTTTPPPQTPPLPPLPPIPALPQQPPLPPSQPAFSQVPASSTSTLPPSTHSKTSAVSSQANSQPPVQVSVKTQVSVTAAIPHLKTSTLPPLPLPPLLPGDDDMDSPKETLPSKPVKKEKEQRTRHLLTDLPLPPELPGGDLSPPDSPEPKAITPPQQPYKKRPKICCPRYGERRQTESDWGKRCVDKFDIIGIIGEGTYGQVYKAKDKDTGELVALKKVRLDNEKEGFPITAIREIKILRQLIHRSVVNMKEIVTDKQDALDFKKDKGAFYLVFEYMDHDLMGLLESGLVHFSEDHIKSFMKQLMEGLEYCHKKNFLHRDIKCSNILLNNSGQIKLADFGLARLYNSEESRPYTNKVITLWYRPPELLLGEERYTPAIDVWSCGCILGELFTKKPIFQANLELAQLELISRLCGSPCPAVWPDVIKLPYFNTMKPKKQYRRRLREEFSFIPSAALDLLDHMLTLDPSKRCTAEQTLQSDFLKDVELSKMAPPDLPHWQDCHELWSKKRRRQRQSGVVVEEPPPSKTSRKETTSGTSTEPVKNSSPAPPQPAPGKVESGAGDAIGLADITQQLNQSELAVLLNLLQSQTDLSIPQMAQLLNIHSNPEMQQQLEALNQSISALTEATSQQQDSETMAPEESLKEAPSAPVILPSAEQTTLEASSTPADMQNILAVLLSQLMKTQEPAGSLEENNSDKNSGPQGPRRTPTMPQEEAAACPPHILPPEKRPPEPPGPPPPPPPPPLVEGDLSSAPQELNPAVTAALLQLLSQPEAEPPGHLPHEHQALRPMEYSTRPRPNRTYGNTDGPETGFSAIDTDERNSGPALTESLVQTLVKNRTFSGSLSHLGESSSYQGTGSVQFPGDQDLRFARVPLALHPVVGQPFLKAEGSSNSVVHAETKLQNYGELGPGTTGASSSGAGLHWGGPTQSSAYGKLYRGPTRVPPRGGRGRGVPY

N#Cc1ccc(N[C@H]2CC[C@H](N(C(=O)NCc3ccccc3)c3ccc(N4CCN(C5CCN(c6cc7c(cc6F)C(=O)N(C6CCC(=O)NC6=O)C7=O)CC5)CC4)cc3)CC2)nc1 (stereo not given in full)
> 10 µM: IC50 at 5 days [9] | IC50 at 5 days [16]
0.07: CI (MDA-MB-231 [17])
0.9: CI (MDA-MB-231 [24])
>1: CI (MDA-MB-231 [2]) | CI (MDA-MB-231 [21])
inactive: Activity [4] | Activity [5] | Activity [11] | Activity [18] | Activity [26] | Activity [30]
active: Activity (MDA-MB-231 [1]) Dose-Dependent Effect | Activity (MDA-MB-231 [3]) Dose-Dependent Effect | Activity (MDA-MB-231 [6]) | Activity [7] Dose-Dependent Effect | Activity [8] Dose-Dependent Effect | Activity (MDA-MB-231 [10]) Dose-Dependent Effect | Activity (MDA-MB-231 [12]) | Activity (MDA-MB-231 [13]) | Activity [14] | Activity (MDA-MB-231 [15]) | Activity [19] Dose-Dependent Effect | Activity [20] | Activity [22] Dose-Dependent Effect | Activity [23] Tde | Activity [25] Dose-Dependent Effect | Activity [27] | Activity [28] | Activity [29]
